The results in this text go back to patent publication US20260256763A1, “Aromatic Amide Derivative, And Preparation Method Therefor And Use Thereof” (Zhejiang Hisun Pharmaceutical Co., Ltd., priority 2023, published 2026).

One assay has as its target T1, recombinant human KIF18A (Homo sapiens, UniProt Q8NI77).
T1 construct: purchased GenScript
Kind of assay: Inhibition on KIF18A enzyme activity (ADP-Glo). The assay is classed as biochemical. As to conditions: recombinant human KIF18A 100 nM, ATP 60 μM. The protocol: Inhibition degrees of the compounds of the present invention on recombinant human KIF18A enzyme activity in vitro were determined by the following method. An ADP-Glo™ Kinase Assay kit (article number V9102) from Promega Company was used in this method. Detailed experimental operation can be referred to the instruction of the kit.
The reaction was carried out in a 384-well microplate. The test compound and the recombinant human KIF18A protein (final concentration of 100 nM, entrusted to GenScript for expression) were added into the wells and incubated at room temperature for 20 minutes, and subsequently, ATP solution (component V915A from the ADP-Glo™ Kinase Assay kit, final concentration of 60 μM) was added to the reaction solution and the obtained system was incubated at room temperature for 20 minutes. Subsequently, 5 μL of ADP-Glo Reagent was added to the reaction system and the obtained system was incubated at room temperature for 50 minutes. Then, 10 μL of Kinase Detection Reagent was added to the reaction system, and the obtained system was incubated at room temperature for 30 minutes. After the incubation was ended, a chemiluminiscence intensity value of each well was determined by a microplate reader in a Luminescence mode.
Background: ADP-Glo turns the ADP formed in a reaction into a luminescent signal.

The next assay concerns OVCAR-3 cells. Kind of assay: Inhibition on OVCAR-3 cell proliferation (CellTiter-Glo). Format: cell-based. As to conditions: Homo sapiens, OVCAR-3 cells (TP53 R248Q mutation), 72 hours. The protocol:
Influences of the compounds of the present invention on OVCAR-3 cell proliferation were determined by the following method. OVCAR-3 cells (containing TP53 R248Q mutation) were purchased from the Cell Bank of Shanghai Institute of Biochemistry and Cell Biology, Chinese Academy of Sciences, and cultured in an RPMI 1640 culture medium containing […], 100 U penicillin and 100 μg/mL streptomycin. A cell viability was determined by a CellTiter-Glo® Luminescent Cell Viability Assay kit (Promega, article number G7573).
(§1) An experimental method was operated according to steps in the instruction of the kit, which was briefly described as follows: a test compound was dissolved in DMSO first to prepare a 10 mM stock solution, then the stock solution was diluted with the above RPMI 1640 culture medium to prepare a test sample, and a final concentration of the compound was in a range of 1000 nM-0.015 nM. Cells in a logarithmic growth phase were inoculated into a 96-well cell culture plate at a density of 1000 cells per well, cultured in a 5% CO2 incubator at 37° C. overnight, and then the test compound was added to continuously culture for 72 hours. After the culture was ended, 50 μL of CellTiter-Glo detection solution was added to each well, the plates were shaken for 5 minutes, and then allowed to stand for 10 minutes, and subsequently, a luminous value of each well of sample was read by a microplate reader in a Luminescence mode. By comparing with a numerical value of a control group (0.3% DMSO), a percentage inhibition rate of the compound at each concentration was calculated, and then nonlinear regression analysis was carried out based on concentration logarithm-inhibition rate of the compound in GraphPad Prism 5 software, so as to obtain an IC50 value of the compound in inhibition on cell proliferation, which are shown in Table 1.
In general terms: Cellular ATP, detected with luciferase, serves as a proxy for viable cell number.

For another assay, the system named is HT-29 cells. Kind of assay: Inhibition on HT-29 cell proliferation (CellTiter-Glo). The assay is classed as cell-based. To be noted: Homo sapiens, HT-29 cells (TP53 R273H mutation), 120 hours. How it is done:
Influences of the compounds of the present invention on HT-29 cell proliferation were determined by the following method. HT-29 cells (containing TP53 R273H mutation) were purchased from the Cell Bank of Shanghai Institute of Biochemistry and Cell Biology, Chinese Academy of Sciences, and cultured in a McCOY's 5A culture medium containing 10% fetal bovine serum, 100 U penicillin and 100 μg/mL streptomycin. A cell viability was determined by a CellTiter-Glo® Luminescent Cell Viability Assay kit (Promega, article number G7573).
as §1, with “McCOY's 5A” for “RPMI 1640”, “120” for “72”, “µL” for “μL”, “2.” for “1.”

T1 sequence (Q8NI77 whole entry): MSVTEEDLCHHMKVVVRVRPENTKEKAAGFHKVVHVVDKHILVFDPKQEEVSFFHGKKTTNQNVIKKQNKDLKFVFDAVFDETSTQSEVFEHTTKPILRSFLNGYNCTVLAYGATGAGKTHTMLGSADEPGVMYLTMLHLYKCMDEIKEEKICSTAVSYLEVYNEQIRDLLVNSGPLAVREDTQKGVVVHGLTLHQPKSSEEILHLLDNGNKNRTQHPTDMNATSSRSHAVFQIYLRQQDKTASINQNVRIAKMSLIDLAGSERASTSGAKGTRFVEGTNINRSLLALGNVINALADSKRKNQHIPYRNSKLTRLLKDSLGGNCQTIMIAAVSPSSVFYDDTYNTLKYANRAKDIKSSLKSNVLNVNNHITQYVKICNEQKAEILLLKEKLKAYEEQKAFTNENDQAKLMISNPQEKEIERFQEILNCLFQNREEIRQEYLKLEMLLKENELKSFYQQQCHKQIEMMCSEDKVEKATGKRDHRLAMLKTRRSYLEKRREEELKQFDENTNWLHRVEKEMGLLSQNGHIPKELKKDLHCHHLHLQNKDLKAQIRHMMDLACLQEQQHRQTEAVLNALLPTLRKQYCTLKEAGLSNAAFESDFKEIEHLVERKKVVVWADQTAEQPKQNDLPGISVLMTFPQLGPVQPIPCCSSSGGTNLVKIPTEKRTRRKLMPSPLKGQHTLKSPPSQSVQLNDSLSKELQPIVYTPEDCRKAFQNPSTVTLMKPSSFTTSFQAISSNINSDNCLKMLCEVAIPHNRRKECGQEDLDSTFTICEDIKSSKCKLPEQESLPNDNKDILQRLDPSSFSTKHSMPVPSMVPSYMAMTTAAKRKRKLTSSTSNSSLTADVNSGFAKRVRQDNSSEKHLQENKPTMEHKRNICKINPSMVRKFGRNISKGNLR
T1 sequence (P68363 whole entry partner): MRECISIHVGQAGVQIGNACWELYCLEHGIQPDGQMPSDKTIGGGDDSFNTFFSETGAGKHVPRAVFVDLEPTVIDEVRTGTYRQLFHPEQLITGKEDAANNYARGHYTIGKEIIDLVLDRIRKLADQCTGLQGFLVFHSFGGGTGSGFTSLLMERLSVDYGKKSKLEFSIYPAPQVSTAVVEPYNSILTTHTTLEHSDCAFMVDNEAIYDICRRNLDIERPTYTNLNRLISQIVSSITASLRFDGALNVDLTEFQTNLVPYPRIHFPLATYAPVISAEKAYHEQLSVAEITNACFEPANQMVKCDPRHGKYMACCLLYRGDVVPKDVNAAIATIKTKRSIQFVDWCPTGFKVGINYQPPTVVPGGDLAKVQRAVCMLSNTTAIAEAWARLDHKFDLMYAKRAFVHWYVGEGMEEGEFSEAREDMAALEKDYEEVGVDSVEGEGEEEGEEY
T1 sequence (Q9BVA1 whole entry partner): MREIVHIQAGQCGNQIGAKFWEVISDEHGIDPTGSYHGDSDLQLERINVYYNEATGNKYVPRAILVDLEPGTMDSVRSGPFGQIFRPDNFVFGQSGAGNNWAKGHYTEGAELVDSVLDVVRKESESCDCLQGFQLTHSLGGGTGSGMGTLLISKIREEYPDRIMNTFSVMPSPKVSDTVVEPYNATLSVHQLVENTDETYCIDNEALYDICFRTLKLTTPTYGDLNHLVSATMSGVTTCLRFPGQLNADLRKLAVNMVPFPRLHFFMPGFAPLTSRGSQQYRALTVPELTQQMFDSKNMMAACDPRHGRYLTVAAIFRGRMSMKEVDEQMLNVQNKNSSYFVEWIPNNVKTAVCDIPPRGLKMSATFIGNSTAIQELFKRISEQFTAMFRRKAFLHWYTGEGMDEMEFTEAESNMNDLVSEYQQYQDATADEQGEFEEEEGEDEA

With `CCS(=O)(=O)Nc1ccc(C(=O)Nc2cc3c(c(N4CCOCC4)c2)C(=O)N(C)C3)c(N2CCC3(CC2)CC3)c1` [Example 27, 4-(ethylsulfonamido)-N-(2-methyl-7-morpholino-1-oxoisoindolin-5-yl)-2-(6-azaspiro[2.5]octan-6-yl)benzamide], the IC50 (commonly the midpoint of a concentration-inhibition curve) at recombinant human KIF18A came to 0.109 µM; in the assay with OVCAR-3 cells it was 0.00196 µM.
For `CCS(=O)(=O)Nc1ccc(C(=O)Nc2cc3c(c(N4CCC(F)(F)CC4)c2)OCCO3)c(N2CCC3(CC2)CC3)c1` [Example 14, N-(8-(4,4-difluoropiperidin-1-yl)-2,3-dihydrobenzo[b][1,4]dioxin-6-yl)-4-(ethylsulfonamido)-2-(6-azaspiro[2.5]octan-6-yl)benzamide], the IC50 worked out at 0.184 µM at recombinant human KIF18A, 0.0084 µM in the assay on OVCAR-3 cells and 0.0092 µM in the assay on HT-29 cells.
`CCS(=O)(=O)Nc1ccc(C(=O)Nc2cc3c(c(N4CCC(F)(F)C4)c2)OCC3)c(N2CCC3(CC2)CC3)c1` [Example 5, N-(7-(3,3-difluoropyrrolidine-1-yl)-2,3-dihydrobenzofuran-5-yl)-4-(ethylsulfonamido)-2-(6-azaspiro[2.5]octan-6-yl)benzamide]: the IC50 at recombinant human KIF18A is 0.134 µM.
With `CCS(=O)(=O)Nc1ccc(C(=O)Nc2cc3c(c(N4CCCCC4)c2)OCC3)c(N2CCC3(CC2)CC3)c1` [Example 3, 4-(ethylsulfonamido)-N-(7-(piperidin-1-yl)-2,3-dihydrobenzofuran-5-yl)-2-(6-azaspiro[2.5]octan-6-yl)benzamide], the values for the concentration for half-maximal inhibition (IC50) on recombinant human KIF18A, in the assay on OVCAR-3 cells and with HT-29 cells were 0.0725 µM, 0.0112 µM and 0.0066 µM, respectively.
Turning to `CCS(=O)(=O)Nc1ccc(C(=O)Nc2cc(N3CCC(F)(F)CC3)c3cn[nH]c3c2)c(N2CCC3(CC2)CC3)c1` [Example 20, N-(4-(4,4-difluoropiperidin-1-yl)-1H-indazol-6-yl)-4-(ethylsulfonamido)-2-(6-azaspiro[2.5]octan-6-yl)benzamide], the concentration for half-maximal inhibition (IC50) on recombinant human KIF18A stood at 0.197 µM; in the assay on OVCAR-3 cells it was 0.0203 µM.
As for `CCS(=O)(=O)Nc1ccc(C(=O)Nc2cc3c(c(N4CCC(F)(F)CC4)c2)C(=O)NC3)c(N2CCC3(CC2)CC3)c1` [Example 23, N-(7-(4,4-difluoropiperidin-1-yl)-1-oxoisoindolin-5-yl)-4-(ethylsulfonamido)-2-(6-azaspiro[2.5]octan-6-yl)benzamide], the IC50 turned out to be 0.123 µM at recombinant human KIF18A, 0.0036 µM in the assay on OVCAR-3 cells and 0.0058 µM in the assay on HT-29 cells.
With `CCS(=O)(=O)Nc1ccc(C(=O)Nc2cc(N3CCC(F)(F)CC3)c3oc(C)nc3c2)c(N2CCC3(CC2)CC3)c1` [Example 22, N-(7-(4,4-difluoropiperidin-1-yl)-2-methylbenzo[d]oxazol-5-yl)-4-(ethylsulfonamido)-2-(6-azaspiro[2.5]octan-6-yl)benzamide], the half-inhibitory concentration (IC50) on recombinant human KIF18A came out at 0.0985 µM; with OVCAR-3 cells, 0.0332 µM.
For the compound `CCS(=O)(=O)Nc1ccc(C(=O)Nc2cc3c(c(N4CCC(F)(F)CC4)c2)OCCC3)c(N2CCC3(CC2)CC3)c1` [Example 15], the IC50 in the assay with OVCAR-3 cells worked out at 0.0184 µM; with HT-29 cells, 0.0236 µM.
For `CCS(=O)(=O)Nc1ccc(C(=O)Nc2cc(N3CCC(F)(F)C3)c3nn(C)cc3c2)c(N2CCC3(CC2)CC3)c1` [Example 25, N-(7-(3,3-difluoropyrrolidin-1-yl)-2-methyl-2H-indazol-5-yl)-4-(ethylsulfonamido)-2-(6-azaspiro[2.5]octan-6-yl)benzamide], the IC50 at recombinant human KIF18A turned out to be 0.198 µM; in the assay on OVCAR-3 cells it was 0.0336 µM.
For the compound `O=C(Nc1cc2c(c(C3(O)CCC(F)(F)CC3)c1)OCC2)c1ccc(NS(=O)(=O)C2CC2)cc1N1CCC2(CC1)CC2` [Example 12, 4-(cyclopropanesulfonamido)-N-(7-(4,4-difluoro-1-hydroxycyclohexyl)-2,3-dihydrobenzofuran-5-yl)-2-(6-azaspiro[2.5]octan-6-yl)benzamide], the IC50 on recombinant human KIF18A stood at 0.173 µM.
Consider `CCS(=O)(=O)Nc1ccc(C(=O)Nc2cc(N3CCC(F)(F)CC3)c3cnn(C)c3c2)c(N2CCC3(CC2)CC3)c1` [Example 16, N-(4-(4,4-difluoropiperidin-1-yl)-1-methyl-1H-indazol-6-yl)-4-(ethylsulfonamido)-2-(6-azaspiro[2.5]octan-6-yl)benzamide], for which the IC50 at recombinant human KIF18A was 0.209 µM; in the assay with OVCAR-3 cells it was 0.0367 µM; with HT-29 cells it was 0.0357 µM.
Take `CCS(=O)(=O)Nc1ccc(C(=O)Nc2cc3c(c(C4(O)CCC(F)(F)CC4)c2)OCC3)c(N2CCC3(CC2)CC3)c1` [Example 11, N-(7-(4,4-difluoro-1-hydroxycyclohexyl)-2,3-dihydrobenzofuran-5-yl)-4-(ethylsulfonamido)-2-(6-azaspiro[2.5]octan-6-yl)benzamide]: the IC50 on recombinant human KIF18A was determined as 0.263 µM.
Turning to `CCS(=O)(=O)Nc1ccc(C(=O)Nc2cc(N3CCC(F)(F)CC3)c3cn(C)nc3c2)c(N2CCC3(CC2)CC3)c1` [Example 17, N-(4-(4,4-difluoropiperidin-1-yl)-2-methyl-2H-indazol-6-yl)-4-(ethylsulfonamido)-2-(6-azaspiro[2.5]octan-6-yl)benzamide], the IC50 amounted to 0.28 µM on recombinant human KIF18A and 0.0066 µM in the assay on OVCAR-3 cells.
On to `CCS(=O)(=O)Nc1ccc(C(=O)Nc2cc3c(c(C4CC4)c2)OCC3)c(N2CCC3(CC2)CC3)c1` [Example 8, N-(7-cyclopropyl-2,3-dihydrobenzofuran-5-yl)-4-(ethylsulfonamido)-2-(6-azaspiro[2.5]octan-6-yl)benzamide], for which, at recombinant human KIF18A, the IC50 amounted to 0.0906 µM.
Regarding `Cn1cc2cc(NC(=O)c3ccc(NS(=O)(=O)C4CC4)cc3N3CCC4(CC3)CC4)cc(N3CCC(F)(F)CC3)c2n1` [Example 26], the IC50 on recombinant human KIF18A is 0.256 µM.
On to `CCS(=O)(=O)Nc1ccc(C(=O)Nc2cc(N3CCC(F)(F)CC3)c3[nH]ncc3c2)c(N2CCC3(CC2)CC3)c1` [Example 21, N-(7-(4,4-difluoropiperidin-1-yl)-1H-indazol-5-yl)-4-(ethylsulfonamido)-2-(6-azaspiro[2.5]octan-6-yl)benzamide], for which the IC50 amounted to 0.229 µM at recombinant human KIF18A, 0.0166 µM with OVCAR-3 cells and 0.0138 µM with HT-29 cells.
Consider `CCS(=O)(=O)Nc1ccc(C(=O)Nc2cc3c(c(N4CC(F)(F)C4)c2)OCC3)c(N2CCC3(CC2)CC3)c1` [Example 6, N-(7-(3,3-difluoroazetidine-1-yl)-2,3-dihydrobenzofuran-5-yl)-4-(ethylsulfonamido)-2-(6-azaspiro[2.5]octan-6-yl)benzamide], for which the IC50 on recombinant human KIF18A worked out at 0.0609 µM; in the assay with OVCAR-3 cells it was 0.0091 µM; in the assay on HT-29 cells it was 0.0107 µM.
Regarding `CCS(=O)(=O)Nc1ccc(C(=O)Nc2cc3c(c(CC(C)C)c2)OCC3)c(N2CCC3(CC2)CC3)c1` [Example 10, 4-(ethylsulfonamido)-N-(7-isobutyl-2,3-dihydrobenzofuran-5-yl)-2-(6-azaspiro[2.5]octan-6-yl)benzamide], the IC50 on recombinant human KIF18A is 0.267 µM.
Regarding `CCS(=O)(=O)Nc1ccc(C(=O)Nc2cc3c(c(N4CCC5(CC4)CC5)c2)OCC3)c(N2CCC3(CC2)CC3)c1` [Example 4, N-(7-(6-azaspiro[2.5]octan-6-yl)-2,3-dihydrobenzofuran-5-yl)-4-(ethylsulfonamido)-2-(6-azaspiro[2.5]octan-6-yl)benzamide], the IC50 at recombinant human KIF18A turned out to be 0.212 µM.
